Data on 8 molecules can be found in DBAASP.

Converted amounts (≈) assume the structure as drawn. “And” between values parts separate entries of the source, which are not always exact repeats. Equal entries are not always repeated. A value given as a limit tells only on which side of the number the result lay.

Assay in all cases: ≥ marks a high value that may be exact or a test limit, other limits are often not marked, values filed in µg/mL are converted to µM
The subject of test [1] is Escherichia coli D31.
For test [2], the system named is Pseudomonas aeruginosa ATCC 10145.
In test [3] the test system is Salmonella enterica subsp. enterica serovar Typhimurium ATCC 700931.
The test system of test [4] is Staphylococcus aureus ATCC 27660.
For test [5], the system named is Staphylococcus epidermidis ATCC 14990.
Test [6] concerns Klebsiella pneumoniae.
The subject of test [7] is Staphylococcus aureus.
Test [8] deals with Vibrio cholerae N16961.
For test [9], the system named is Bacillus subtilis KCTC 3068.
Test [10] deals with Enterococcus faecalis KCTC 2011.
The test system of test [11] is Escherichia coli ATCC 25922.
The subject of test [12] is Escherichia coli KCTC 1682.
Test [13] deals with Proteus vulgaris KCTC 2433.
Test [14] relates to Pseudomonas aeruginosa KCTC 1637.
Test [15] relates to Salmonella typhimurium KCTC 1926.
Test [16] concerns Staphylococcus aureus KCTC 1621.
The subject of test [17] is Staphylococcus epidermidis ATCC 12228.
The test system of test [18] is Staphylococcus epidermidis KCTC 1917.
The test system of test [19] is Candida albicans ATCC 10231.
Test [20] relates to Enterococcus faecalis PCM 2673.
Test [21] has as its system Pseudomonas aeruginosa ATCC 9027.
The test system of test [22] is Staphylococcus aureus ATCC 25923.
Test [23] relates to Escherichia coli ATCC 11229.
In test [24] the test system is Escherichia coli ATCC 35218.
The subject of test [25] is Klebsiella pneumoniae ATCC 13866.
Test [26] concerns Pseudomonas aeruginosa ATCC 27853.
Test [27] concerns Salmonella enterica serovar Typhimurium.
For test [28], the system named is Staphylococcus aureus ATCC 29213.
The subject of test [29] is Staphylococcus aureus ATCC 33591.
The subject of test [30] is Escherichia coli DH5alpha.
Test [31] relates to Pseudomonas aeruginosa NBRC 13275.
Test [32] deals with Staphylococcus aureus NBRC 13276.
Test [33] concerns Aeromonas hydrophila ATCC 35654.
Test [34] relates to Micrococcus luteus ATCC 49732.
For test [35], the system named is Escherichia coli BL21AI.
In test [36] the test system is Micrococcus luteus DSM 1790.

Take `CC[C@H](C)[C@H](NC(=O)[C@H](C)N)C(=O)N[C@@H](Cc1c[nH]c2ccccc12)C(=O)N[C@@H](CCCCN)C(=O)N[C@@H](CCCCN)C(=O)N[C@H](C(=O)N[C@H](C(=O)N[C@@H](CCCCN)C(=O)N[C@@H](CCCCN)C(=O)N[C@H](C(=O)N[C@H](C(=O)N[C@@H](CCCCN)C(=O)N[C@@H](CO)C(=O)N[C@@H](C)C(=O)N[C@@H](CCCCN)C(=O)N[C@@H](CCCCN)C(=O)N[C@H](C(=O)NCC(=O)O)[C@@H](C)CC)[C@@H](C)CC)[C@@H](C)CC)[C@@H](C)CC)[C@@H](C)CC` [AIWKKIIKKIIKSAKKIG]: the minimal inhibitory concentration (MIC) in test [1] stood at 0.94 µM (≈ 1.94 µg/mL); in test [2] it was 1.88 µM (≈ 3.89 µg/mL); in test [3], 1.88 µM (≈ 3.89 µg/mL); in [4], 1.88 µM (≈ 3.89 µg/mL); in test [5] it was 0.94 µM (≈ 1.94 µg/mL).

Regarding `CC[C@H](C)[C@@H]1NC(=O)CNC(=O)[C@@H](NC(=O)[C@H](CC(C)C)NC(=O)[C@@H](NC(=O)[C@H](CO)NC(=O)[C@@H]2CCCN2C(=O)[C@H](CC(C)C)NC(=O)[C@@H](NC(=O)[C@H](CCCCN)NC(=O)[C@H](C)NC(=O)CNC(=O)[C@@H](NC(=O)[C@H](CCCCN)NC(=O)[C@H](CC(C)C)NC(=O)[C@H](CC(C)C)NC(=O)[C@H](C)NC(=O)CNC(=O)[C@H](CC(C)C)NC(=O)[C@@H](N)Cc2ccccc2)[C@@H](C)CC)C(C)C)C(C)C)CSSC[C@@H](C(N)=O)NC(=O)[C@H](CCCCN)NC(=O)[C@H](CCCCN)NC(=O)[C@H](Cc2ccccc2)NC1=O` [FLGALLKIGAKVLPSVLCGIFKKC], the MIC in test [6] came to 15 µM (≈ 37.7 µg/mL); in test [7], 4 µM (≈ 10.1 µg/mL); in test [8], 4.5 µM (≈ 11.3 µg/mL).

In the case of `CC[C@H](C)[C@H](NC(=O)CN)C(=O)NCC(=O)N[C@@H](CCCCN)C(=O)N[C@@H](Cc1c[nH]c2ccccc12)C(=O)N[C@@H](CC(C)C)C(=O)N[C@@H](Cc1cnc[nH]1)C(=O)N[C@@H](CO)C(=O)N[C@@H](C)C(=O)N[C@@H](CCCCN)C(=O)N[C@@H](CCCCN)C(=O)N[C@@H](Cc1ccccc1)C(=O)NCC(=O)N[C@@H](CCCCN)C(=O)N[C@@H](C)C(=O)N[C@@H](Cc1ccccc1)C(=O)N[C@H](C(=O)NCC(=O)N[C@@H](CCC(=O)O)C(=O)N[C@H](C(=O)N[C@@H](CCSC)C(=O)N[C@@H](CC(N)=O)C(=O)N[C@@H](CO)C(=O)O)[C@@H](C)CC)C(C)C` [GIGKWLHSAKKFGKAFVGEIMNS], the minimum inhibitory concentration (MIC) in test [9] is 8 µM (≈ 20 µg/mL); in [10], 16 µM (≈ 40.1 µg/mL); in [11], 8 µM and 20 µM; in test [12] it was ≥ 32 µM; in [13], ≥ 45.3 µM; in [14], ≥ 32 µM. Moreover, the MIC in [15] was 22.6 µM (≈ 56.7 µg/mL); in test [16] it was 22.6 µM (≈ 56.7 µg/mL); in [17], 20 µM and 40 µM; in test [18], 16 µM (≈ 40.1 µg/mL).

Take `CC[C@H](C)[C@H](NC(=O)[C@H](CCCCN)NC(=O)[C@H](CCCCN)NC(=O)[C@@H](NC(=O)[C@@H](NC(=O)[C@H](CC(=O)O)NC(=O)[C@H](Cc1ccccc1)NC(=O)[C@H](CC(C)C)NC(=O)CN)[C@@H](C)CC)[C@@H](C)CC)C(=O)N[C@@H](C)C(=O)N[C@@H](CCC(=O)O)C(=O)N[C@@H](C)C(=O)N[C@@H](Cc1ccccc1)C(N)=O` [GLFDIIKKIAEAF]: the MIC in test [19] is 21.8 µM (≈ 32 µg/mL); in [20], ≥ 43.7 µM; in [11] it was 43.7 µM (≈ 64 µg/mL); in [21], > 350 µM; in [22], 21.8 µM (≈ 32 µg/mL).

Regarding `CC[C@H](C)[C@H](NC(=O)[C@H](C)NC(=O)[C@H](CCCN=C(N)N)NC(=O)[C@H](CC(C)C)NC(=O)[C@@H](NC(=O)[C@H](CO)NC(=O)CN)C(C)C)C(=O)N[C@@H](CCSC)C(=O)N[C@@H](CCCN=C(N)N)C(=O)N[C@@H](CCSC)C(=O)N[C@@H](Cc1ccccc1)C(=O)N[C@@H](C)C(=O)N[C@@H](CCCCN)C(=O)N[C@@H](CC(C)C)C(=O)N[C@@H](CCSC)C(=O)NCC(=O)O` [GSVLRAIMRMFAKLMG], the minimum inhibitory concentration (MIC) in test [23] is ≥ 35.9 µM; in [24], ≥ 35.9 µM; in test [25], ≥ 35.9 µM; in [26], 18 µM (≈ 32 µg/mL); in test [27], ≥ 35.9 µM; in test [22] it was 35.9 µM (≈ 64 µg/mL). Moreover, the values for the minimum inhibitory concentration (MIC) in [28], in test [29] and in test [17] were 35.9 µM (≈ 64 µg/mL), 4.49 µM (≈ 8 µg/mL) and 4.49 µM (≈ 8 µg/mL), respectively.

For `CC[C@H](C)[C@H](NC(=O)[C@H](CCC(=O)O)NC(=O)CNC(=O)[C@@H](NC(=O)[C@H](Cc1ccccc1)NC(=O)[C@H](C)NC(=O)[C@H](CCCCN)NC(=O)CNC(=O)[C@H](Cc1ccccc1)NC(=O)[C@H](CCCCN)NC(=O)[C@H](CCCCN)NC(=O)[C@H](C)NC(=O)[C@H](CO)NC(=O)[C@H](Cc1cnc[nH]1)NC(=O)[C@H](CC(C)C)NC(=O)[C@H](Cc1ccccc1)NC(=O)[C@H](CCCCN)NC(C)=O)C(C)C)C(=O)N[C@@H](CCSC)C(=O)N[C@@H](CC(N)=O)C(=O)N[C@@H](CO)C(N)=O` [KFLHSAKKFGKAFVGEIMNS], the MIC in [30] is ≥ 200 µM; in [31], ≥ 200 µM; in [32], ≥ 400 µM.

Turning to `CC[C@H](C)[C@H](NC(=O)[C@H](CC(C)C)NC(=O)[C@H](CCC(N)=O)NC(=O)[C@@H](NC(=O)[C@H](CCCCN)NC(=O)[C@@H](NC(=O)[C@H](CS)NC(=O)[C@H](CCCCN)NC(=O)[C@@H](N)CCCN=C(N)N)C(C)C)C(C)C)C(=O)N[C@@H](CCCCN)C(=O)N[C@@H](CC(N)=O)C(=O)NCC(=O)N[C@@H](CCCN=C(N)N)C(=O)N[C@@H](CCC(N)=O)C(=O)N[C@H](C(=O)N[C@H](C(=O)N[C@@H](C)C(=O)N[C@@H](Cc1ccccc1)C(N)=O)[C@@H](C)O)C(C)C` [RKCVKVQLIKNGRQVTAF], the minimum inhibitory concentration (MIC) in test [33] was 20 µM (≈ 41.8 µg/mL); in [11], 12 µM (≈ 25.1 µg/mL); in test [34], 7.2 µM (≈ 15 µg/mL); in [22], > 20 µM.

Consider `CC[C@H](C)[C@H](NC(=O)[C@H](CCCN=C(N)N)NC(=O)[C@H](CCCN=C(N)N)NC(=O)[C@@H]1CCCN1C(=O)[C@@H]1CCCN1C(=O)[C@H](Cc1cnc[nH]1)NC(=O)[C@@H]1CCCN1C(=O)[C@H](CCCN=C(N)N)NC(=O)[C@@H]1CCCN1C(=O)[C@H](CC(C)C)NC(=O)[C@H](Cc1ccc(O)cc1)NC(=O)[C@@H]1CCCN1C(=O)[C@@H]1CCCN1C(=O)[C@H](CCCCN)NC(=O)[C@H](CC(=O)O)NC(=O)[C@@H](N)C(C)C)C(=O)N[C@@H](Cc1ccc(O)cc1)C(=O)N[C@@H](CC(N)=O)C(=O)O` [VDKPPYLPRPHPPRRIYN], for which the MIC is 28.2 µM (≈ 62.5 µg/mL) in [35] and 14.1 µM (≈ 31.3 µg/mL) in [36].
